{
  "source": "ChEMBL document CHEMBL5120866",
  "about": "“Design and Synthesis of Novel Celastrol Derivatives as Potential Anticancer Agents against Gastric Cancer Cells” (J Nat Prod, 2022)",
  "key": {"BGC-823 [1]": {"system": "BGC-823", "assay": "Induction of JNK phosphorylation in human BGC-823 cells at 0.15 to 0.6 uM incubated for 24 hrs by Western blot analysis", "assay_type": "functional, cell-based", "conditions": "dose 0.15-0.6 µM"}, "HepG2": {"system": "HepG2", "assay": "Antiproliferative activity against human HepG2 cells assessed as cell growth inhibition incubated for 48 hrs by MTT assay", "assay_type": "functional, cell-based", "conditions": "HepG2, 48 h"}, "BGC-823 [2]": {"system": "BGC-823", "assay": "Induction of ROS generation in human BGC-823 cells assessed as increase in intracellular ROS level incubated for 24 hrs by DCFH-DA staining based fluorescence microscopic analysis", "assay_type": "functional, cell-based", "conditions": "dose 0.3-0.6 µM, DDE = dose-dependent effect"}, "BGC-823 [3]": {"system": "BGC-823", "assay": "Induction of cell cycle arrest in human BGC-823 cells assessed as accumulation of cells at S phase at 0.6 uM incubated for 24 hrs by PI staining based flow cytometry method (reference value: 26.01%)", "assay_type": "functional"}, "BGC-823 [4]": {"system": "BGC-823", "assay": "Induction of apoptosis in human BGC-823 cells assessed as increase in cleaved-caspase 9 expression at 0.15 to 0.6 uM incubated for 24 hrs by Western blot analysis", "assay_type": "functional, cell-based", "conditions": "dose 0.15-0.6 µM"}, "BGC-823 [5]": {"system": "BGC-823", "assay": "Antiproliferative activity against human BGC-823 cells assessed as cell growth inhibition incubated for 48 hrs by MTT assay", "assay_type": "functional, cell-based", "conditions": "BGC-823, 48 h"}, "BGC-823 [6]": {"system": "BGC-823", "assay": "Induction of mitochondrial dysfunction in human BGC-823 cells assessed as […] by measuring reduction in red fluorescence at 0.15 to 0.6 uM incubated for 24 hrs by inverted fluorescent microscopic analysis", "assay_type": "functional, cell-based", "conditions": "dose 0.15-0.6 µM"}, "BGC-823 [7]": {"system": "BGC-823", "assay": "Induction of apoptosis in human BGC-823 cells assessed as necrotic cells at 0.15 uM incubated for 24 hrs by annexin-V-FITC and PI staining based flow cytometry analysis (reference value: 0.6%)", "assay_type": "functional"}, "BGC-823 [8]": {"system": "BGC-823", "assay": "Induction of apoptosis in human BGC-823 cells assessed as viable cells at 0.3 uM incubated for 24 hrs by annexin-V-FITC and PI staining based flow cytometry analysis (reference value: 96.3%)", "assay_type": "functional", "conditions": "read-out: Activity"}, "BGC-823 [9]": {"system": "BGC-823", "assay": "Induction of apoptosis in human BGC-823 cells assessed as increase in cleaved PARP expression at 0.15 to 0.6 uM incubated for 24 hrs by Western blot analysis", "assay_type": "functional, cell-based", "conditions": "dose 0.15-0.6 µM"}, "BGC-823 [10]": {"system": "BGC-823", "assay": "Antitumor activity against human BGC-823 cells xenografted in athymic BALB/c nude mouse assessed increase in ROS level in tumor tissue by measuring increase in red fluorescence at 1.5 mg/kg, ip measured after 21 days by DHE staining based fluorescence microscopic analysis", "assay_type": "functional, organism-based", "conditions": "time 21.0 day"}, "BGC-823 [11]": {"system": "BGC-823", "assay": "Induction of apoptosis in human BGC-823 cells assessed as viable cells at 0.6 uM incubated for 24 hrs by annexin-V-FITC and PI staining based flow cytometry analysis (reference value: 96.3%)", "assay_type": "functional", "conditions": "read-out: Activity"}, "BGC-823 [12]": {"system": "BGC-823", "assay": "Antitumor activity against human BGC-823 cells xenografted in athymic BALB/c nude mouse assessed as tumor growth inhibition rate at 1.5 mg/kg, ip measured every 2 days for 21 days by curson caliper method relative to control", "assay_type": "functional", "conditions": "BGC-823, 504 h, time 21 day, read-out: TGI"}, "[13]": {"assay": "Toxicity in athymic BALB/c nude mouse assessed as effect on kidney at 1.5 mg/kg, ip measured after 21 days by H and E staining based histopathological analysis", "assay_type": "organism-based", "conditions": "in vivo, 504 h, time 21 day"}, "BGC-823 [14]": {"system": "BGC-823", "assay": "Induction of apoptosis in human BGC-823 cells assessed as necrotic cells at 0.6 uM incubated for 24 hrs by annexin-V-FITC and PI staining based flow cytometry analysis (reference value: 0.6%)", "assay_type": "functional"}, "BGC-823 [15]": {"system": "BGC-823", "assay": "Antiproliferative activity against human BGC-823 cells assessed as cell growth inhibition at 0.5 uM incubated for 48 hrs by MTT assay relative to control", "assay_type": "functional"}, "HCT-116": {"system": "HCT-116", "assay": "Antiproliferative activity against human HCT-116 cells assessed as cell growth inhibition incubated for 48 hrs by MTT assay", "assay_type": "functional, cell-based", "conditions": "HCT-116, 48 h"}, "BGC-823 [16]": {"system": "BGC-823", "assay": "Induction of apoptosis in human BGC-823 cells assessed as viable cells at 0.15 uM incubated for 24 hrs by annexin-V-FITC and PI staining based flow cytometry analysis (reference value: 96.3%)", "assay_type": "functional", "conditions": "read-out: Activity"}, "BGC-823 [17]": {"system": "BGC-823", "assay": "Induction of cell cycle arrest in human BGC-823 cells assessed as accumulation of cells at G0/G1 phase at 0.3 uM incubated for 24 hrs by PI staining based flow cytometry method (reference value: 50.66%)", "assay_type": "functional"}, "BGC-823 [18]": {"system": "BGC-823", "assay": "Induction of cell cycle arrest in human BGC-823 cells assessed as accumulation of cells at G0/G1 phase at 0.15 uM incubated for 24 hrs by PI staining based flow cytometry method (reference value: 50.66%)", "assay_type": "functional"}, "BGC-823 [19]": {"system": "BGC-823", "assay": "Induction of apoptosis in human BGC-823 cells assessed as early apoptotic cells at 0.6 uM incubated for 24 hrs by annexin-V-FITC and PI staining based flow cytometry analysis (reference value: 2.4%)", "assay_type": "functional"}, "BGC-823 [20]": {"system": "BGC-823", "assay": "Induction of cell cycle arrest in human BGC-823 cells assessed as accumulation of cells at S phase at 0.15 uM incubated for 24 hrs by PI staining based flow cytometry method (reference value: 26.01%)", "assay_type": "functional"}, "BGC-823 [21]": {"system": "BGC-823", "assay": "Induction of cell cycle arrest in human BGC-823 cells assessed as accumulation of cells at G2/M phase at 0.6 uM incubated for 24 hrs by PI staining based flow cytometry method (reference value: 22.86%)", "assay_type": "functional"}, "[22]": {"assay": "Toxicity in athymic BALB/c nude mouse assessed as effect on liver at 1.5 mg/kg, ip measured after 21 days by H and E staining based histopathological analysis", "assay_type": "organism-based", "conditions": "in vivo, 504 h, time 21 day"}, "BGC-823 [23]": {"system": "BGC-823", "assay": "Induction of apoptosis in human BGC-823 cells assessed as necrotic cells at 0.3 uM incubated for 24 hrs by annexin-V-FITC and PI staining based flow cytometry analysis (reference value: 0.6%)", "assay_type": "functional"}, "BGC-823 [24]": {"system": "BGC-823", "assay": "Induction of apoptosis in human BGC-823 cells assessed as late apoptotic cells at 0.15 uM incubated for 24 hrs by annexin-V-FITC and PI staining based flow cytometry analysis (reference value: 0.6%)", "assay_type": "functional"}, "BGC-823 [25]": {"system": "BGC-823", "assay": "Induction of cell cycle arrest in human BGC-823 cells assessed as accumulation of cells at G2/M phase at 0.15 uM incubated for 24 hrs by PI staining based flow cytometry method (reference value: 22.86%)", "assay_type": "functional"}, "BGC-823 [26]": {"system": "BGC-823", "assay": "Antitumor activity against human BGC-823 cells xenografted in athymic BALB/c nude mouse assessed as reduction in mitosis at 1.5 mg/kg, ip measured after 21 days by H and E staining based analysis", "assay_type": "functional, organism-based", "conditions": "time 21.0 day"}, "BGC-823 [27]": {"system": "BGC-823", "assay": "Antitumor activity against human BGC-823 cells xenografted in athymic BALB/c nude mouse assessed as increase in cell necrosis at 1.5 mg/kg, ip measured after 21 days by H and E staining based analysis", "assay_type": "functional, organism-based", "conditions": "time 21.0 day"}, "[28]": {"assay": "Toxicity in athymic BALB/c nude mouse assessed as effect on spleen at 1.5 mg/kg, ip measured after 21 days by H and E staining based histopathological analysis", "assay_type": "organism-based", "conditions": "in vivo, 504 h, time 21 day"}, "[29]": {"assay": "Toxicity in athymic BALB/c nude mouse assessed as effect on lung at 1.5 mg/kg, ip measured after 21 days by H and E staining based histopathological analysis", "assay_type": "organism-based", "conditions": "in vivo, 504 h, time 21 day"}, "BGC-823 [30]": {"system": "BGC-823", "assay": "Induction of apoptosis in human BGC-823 cells assessed as reduction in total number of cells at 0.15 to 0.6 uM incubated for 24 hrs by Hoechst 33342 staining based flourescence microscopy method", "assay_type": "functional, cell-based", "conditions": "dose 0.15-0.6 µM"}},
  "note": "The source made the active and inactive calls. No cut-off for these calls is given here.",
  "data": [
    {"smiles": "CCOC(=O)c1cnn(CCCOC(=O)[C@]2(C)CC[C@]3(C)CC[C@]4(C)C5=CC=C6C(=CC(=O)C(O)=C6C)[C@]5(C)CC[C@@]4(C)[C@@H]3C2)c1", "values": [
      {"measurement": "Activity", "setting": "BGC-823 [1]", "value": "Active"},
      {"measurement": "IC50", "setting": "HepG2", "value": 0.35, "unit": "µM"},
      {"measurement": "Activity", "setting": "BGC-823 [2]", "value": "Dde"},
      {"measurement": "Activity", "setting": "BGC-823 [3]", "value": 24.75, "unit": "%"},
      {"measurement": "Activity", "setting": "BGC-823 [4]", "value": "Active"},
      {"measurement": "IC50", "setting": "BGC-823 [5]", "value": 0.21, "unit": "µM"},
      {"measurement": "Activity", "setting": "BGC-823 [6]", "value": "Active"},
      {"measurement": "Activity", "setting": "BGC-823 [7]", "value": 0.2, "unit": "%"},
      {"measurement": "viability at 0.3 µM", "setting": "BGC-823 [8]", "value": 78.2, "unit": "%"},
      {"measurement": "Activity", "setting": "BGC-823 [9]", "value": "Active"},
      {"measurement": "Activity", "setting": "BGC-823 [10]", "value": "Active"},
      {"measurement": "viability at 0.6 µM", "setting": "BGC-823 [11]", "value": 50.9, "unit": "%"},
      {"measurement": "inhibition in vivo at 1.5 mg/kg", "setting": "BGC-823 [12]", "value": 89.8, "unit": "%"},
      {"measurement": "Activity", "setting": "[13]", "value": "Non-Toxic"},
      {"measurement": "Activity", "setting": "BGC-823 [14]", "value": 1.5, "unit": "%"},
      {"measurement": "inhibition at 0.5 µM", "setting": "BGC-823 [15]", "value": "> 50", "unit": "%"},
      {"measurement": "IC50", "setting": "HCT-116", "value": 0.41, "unit": "µM"},
      {"measurement": "viability at 0.15 µM", "setting": "BGC-823 [16]", "value": 94.9, "unit": "%"},
      {"measurement": "Activity", "setting": "BGC-823 [17]", "value": 46.1, "unit": "%"},
      {"measurement": "Activity", "setting": "BGC-823 [18]", "value": 48.17, "unit": "%"},
      {"measurement": "Activity", "setting": "BGC-823 [19]", "value": 26, "unit": "%"},
      {"measurement": "Activity", "setting": "BGC-823 [20]", "value": 26.07, "unit": "%"},
      {"measurement": "Activity", "setting": "BGC-823 [21]", "value": 34.73, "unit": "%"},
      {"measurement": "Activity", "setting": "[22]", "value": "Non-Toxic"},
      {"measurement": "Activity", "setting": "BGC-823 [23]", "value": 0.4, "unit": "%"},
      {"measurement": "Activity", "setting": "BGC-823 [24]", "value": 0.5, "unit": "%"},
      {"measurement": "Activity", "setting": "BGC-823 [25]", "value": 23.89, "unit": "%"},
      {"measurement": "Activity", "setting": "BGC-823 [26]", "value": "Active"},
      {"measurement": "Activity", "setting": "BGC-823 [27]", "value": "Active"},
      {"measurement": "Activity", "setting": "[28]", "value": "Non-Toxic"},
      {"measurement": "Activity", "setting": "[29]", "value": "Non-Toxic"},
      {"measurement": "Activity", "setting": "BGC-823 [30]", "value": "Active"}
    ]}
  ]
}
